Measured values reported in patent US10906904B2, “ADO-resistant cysteamine analogs and uses thereof” (HORIZON ORPHAN LLC, priority 2015, dated 2021).
Where two headings read alike, the source gives them in different places. Blank lines part the entries; values can stand above or below the compound they belong to.

Assays:
[1] = Rodent pharmacokinetic assay (rat); format: in vivo; conditions: 2 and 10 mg free base equivalents per kg, intravenous and oral gavage
Experimental: (§1) Pharmacokinetic parameters of a test compound in a rodent species (mouse and/or rat) were determined by administering a test compound at 2 and 10 mg free base equivalents per kg via the intravenous and oral gavage route to groups of three animals per route.
(§2) Blood samples were taken at various times after administration, plasma prepared, and submitted to analysis for parent drug using a qualified LC-MS-MS assay. Pharmacokinetics parameters derived from the plasma analytical data were determined using non-compartmental analysis.

[2] = system: cystinotic human fibroblasts; assay: Cystine depletion assay; format: cell-based; conditions: for cystine depletion levels (in words): compared to cysteamine; for Cystine depletion: compound at 50 μM or 100 μM, Tables 1-3
In short: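 Cystinotic human fibroblasts treated with compound at 50 μM or 100 μM for 60 min at 37° C. After homogenisation and acid protein precipitation, cystine measured by HILIC LC-MS/MS and normalised to protein. Depletion expressed as percent of that achieved by cysteamine at similar concentration.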

[3] = Rodent pharmacokinetic assay (mouse)
Experimental: as §1, §2

human recombinant ADO = molecular target: T1, human recombinant ADO (Homo sapiens, UniProt Q96SZ5); format: in vitro ADME
T1 sequence (Q96SZ5 1-270): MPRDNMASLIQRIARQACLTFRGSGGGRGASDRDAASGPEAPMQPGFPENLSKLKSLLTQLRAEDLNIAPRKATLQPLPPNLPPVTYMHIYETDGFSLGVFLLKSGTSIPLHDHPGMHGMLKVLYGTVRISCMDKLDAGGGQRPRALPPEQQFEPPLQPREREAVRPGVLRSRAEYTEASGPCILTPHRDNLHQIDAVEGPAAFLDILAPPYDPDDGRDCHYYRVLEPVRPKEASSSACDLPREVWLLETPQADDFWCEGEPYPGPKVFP
In short: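 Test compound (15 mM) incubated with 60 μg/ml human recombinant ADO and 20 nM O2-sensitive fluorescent probe at 37 °C in sealed chamber. Initial rate of fluorescence increase (ex 380/em 650 nm) gave oxygen consumption, expressed relative to 15 mM cysteamine.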

in vitro = conditions: rat
Experimental: (§3) Rat hepatocytes were used to model in vivo hepatic clearance of the compounds by the ADO enzyme. Briefly, a Hepatocyte Stability Assay was carried out using cryopreserved rat hepatocytes.

Cystine reactivity assay [4] = assay: Cystine reactivity assay; parameters: Cystine Reactivity: unit not given here; conditions: for Cystine Reactivity: Tables 1-3; for reactivity with cystine compared to cysteamine (in words): text summary of Tables 1-3
In short: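 3 mM test compound incubated with 100 nM BODIPY FL L-cystine in phosphate buffer, pH 7.4, 30 °C; S–S cleavage relieves quenching, raising fluorescence. Rate taken as slope (RFU/min) of linear fit over time, expressed as percentage of 3 mM cysteamine.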

[5] = system: cryopreserved rat hepatocytes; assay: Rat hepatocyte stability assay
Experimental: as §3

St-HdhQ^111/111 cells = assay: Glutamate-induced neuronal excitotoxicity assay; format: cell-based
In short: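 Cells were pretreated with compound for 60 min at 33 °C in DMEM under 5% CO2, then exposed to 6 mM L-glutamate for 24 h. Viability was measured as ATP by CellTiter-Glo luminescence. Survival is expressed relative to 100 μM cysteamine, set as 100%.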

[6] = Dimethyl sulfide (DMS) detection in rat whole blood following oral compound administration; format: in vivo; conditions: rat whole blood, 150 mg/kg po
Experimental: Male Sprague Dawley (SD) rats (200-250 g) were housed in cages under a 12 hour light/dark cycle with free access to food and water. Temperature and humidity were controlled according to UK Home Office regulations. For oral (po) administration, test compounds were formulated in water at a concentration of 30 mg/mL, to provide a dose of 150 mg/kg when administered orally in a 5 mL/kg dosing volume. Following compound or water (vehicle) administration to rats (n=15 per compound), terminal blood samples (>5 mL) were taken by cardiac puncture under CO2 at defined time-points post oral dosing (pre-dose, 0.25 hour, 0.5 hour, 1 hour and 2 hour). Blood was placed in sealed heparinized Eppendorf tubes on wet ice and stored at 4° C. prior to analyzing DMS levels by gas chromatography (GC).
For each sample of rat blood, 1 mL was added to an evacuated 20 mL GC-Headspace vial containing tetrahydrofuran (THF) internal standard. Headspace vials were sealed with a crimp cap and septum (to prevent the vaporization of volatile sulfur compounds into the open air) and thoroughly vortex mixed. All samples were processed using gas chromatography to measure DMS levels. In short, sulfur containing compounds were thermally liberated into the gas carrier stream and injected (1 μL) into the gas chromatography column (30 m×0.32 mm DB-624 1.8 μm). Under these conditions, the retention time for dimethyl sulfide (DMS) and THF internal standard were approximately 1.83 minutes and 3.82 minutes respectively.
For each analyzed blood sample, the ratio of DMS peak area to THF peak area was calculated. For the DMS calibration curve and assay linearity checks, this ratio was graphically plotted against the concentration of reference DMS standards (blank, 60 nM, 180 nM, 360 nM, 600 nM, 1200 nM, 1800 nM and 3000 nM). The concentration of DMS in each blood sample was calculated from the equation produced by this plot by linear regression analysis. […].

Cystine reactivity assay [7] = conditions: Table 4
in vivo = conditions: mouse, 10 mg
Experimental: as §1, §2

[8] = 2 and 10 mg free base equivalents per kg, intravenous and oral gavage
[9] = relative to 15 mM cysteamine, Tables 1-3

bioavailability ([1]; plasma, read-out: Rat PK Bioavailability): 34% | half-life ([1]; plasma, read-out: Rat PK-Half life (converted)): 2.3 h | half-life ([3]; plasma, 10 mg): 3.9 h | bioavailability ([3]; plasma, oral, 10 mg): 38% | ADO metabolism (human recombinant ADO; human, 15 mM): 1% | microsomal CLint at 3 μM (in vitro; cryopreserved rat hepatocytes): 12600 µL/min/mg
SMILES: CN1CCC(S)CC1 [Compound 2d]
cystine depletion levels (in words) [2]: slightly decreased | Cystine depletion [2]: 79% | metabolism by ADO compared to cysteamine (in words) (human recombinant ADO): significantly reduced metabolism by ADO compared to cysteamine | Cystine Reactivity (Cystine reactivity assay [4]): 7332 | reactivity with cystine compared to cysteamine (in words) (Cystine reactivity assay [4]): increased reactivity with cystine compared to cysteamine

SMILES: NCCS [Cysteamine]
Rat PK Bioavailability [1]: 62% | Rat PK-Half life [1]: 0.5 h | Cystine Depletion (%) ([2]; Table 4, relative to cystine depletion by cysteamine (100%) at a similar concentration): 100% | Cystine depletion [2]: 101% | Cystine depletion ( ) = disulfide efficacy ([2]; disulfide of the compound, 50 μM or 100 μM): (106%) | Rat Hepatocytes CLint [5]: 33700 µL/min/mg | HdhQ^111/111 cell % survival (mean ± STD) Test Conc. 10 μM (St-HdhQ^111/111 cells; 10 μM, 6 mM L-glutamate 24 hours, % of effect of 100 μM cysteamine): 20 ± 6% | HdhQ^111/111 cell % survival (mean ± STD) Test Conc. 100 μM (St-HdhQ^111/111 cells; 100 μM, 6 mM L-glutamate 24 hours, % of effect of 100 μM cysteamine): 105 ± 13% | inhibition of glutamate-induced excitotoxicity / cell survival (in words) (St-HdhQ^111/111 cells; St-HdhQ^111/111 cells): capable of inhibiting glutamate-induced excitotoxicity | Mean DMS levels (nM) ± STD, Time 0.5 hr ([6]; 0.5 hr): 1097 ± 418 nM | Mean DMS levels (nM) ± STD, Time 1 hr ([6]; 1 hr): 1162 ± 373 nM | Mean DMS levels (nM) ± STD, Time 2 hr ([6]; 2 hr): 1437 ± 334 nM | Mean DMS levels (nM) ± STD, Time […] ([6]; […]): 641 ± 324 nM | Mouse PK Bioavailability [3, 8]: 33% | Mouse PK-Half life [3, 8]: 2.4 h | ADO Metabolism Assay (%) Mean Value (human recombinant ADO; Table 4, relative to 15 mM cysteamine): >75% | ADO metabolism (human recombinant ADO; [9]): 111% | Cystine Reactivity Assay (30° C.) (%) Mean Value (Cystine reactivity assay [4]; Table 4, 30° C., percentage of 3 mM cysteamine): >90% | Cystine Reactivity (Cystine reactivity assay [4]): 6543 | Cystine Reactivity Assay (RT) (RFU) Mean Value (Cystine reactivity assay [7]): 4000-9000 RFU

SMILES: SCCN1CCCC1 [Compound 2b]
cystine depletion levels (in words) [2]: similar | Cystine depletion [2]: 99% | ADO metabolism (human recombinant ADO; [9]): 4% | metabolism by ADO compared to cysteamine (in words) (human recombinant ADO; text summary of Tables 1-3): significantly reduced metabolism by ADO compared to cysteamine | microsomal CLint (in vitro; hepatocytes): 15700 µL/min/mg | Cystine Reactivity (Cystine reactivity assay [4]): 12392 | reactivity with cystine compared to cysteamine (in words) (Cystine reactivity assay [4]): increased reactivity with cystine compared to cysteamine | bioavailability (in vivo): 33% | half-life (in vivo): 0.4 h
